Results from publication PMC6658998, “Pharmacological characterization of the seven human NOX isoforms and their inhibitors” (Redox Biology, 2019).

Legend:
NOX5 [1] = biological target: T1, NOX5 (Homo sapiens, UniProt Q96PH1); experiment: WST-1 O2•- detection in NOX5-expressing HEK293 cells; assay type: cell-based; conditions: WST-1, PMA 0.1 μM and ionomycin 1 μM; read-out: IC50 NOX5 (HEK) WST-1
T1 construct: expressed in transfected cells
T1 sequence (Q96PH1 19-737 isoform Q96PH1-3 limits assumed): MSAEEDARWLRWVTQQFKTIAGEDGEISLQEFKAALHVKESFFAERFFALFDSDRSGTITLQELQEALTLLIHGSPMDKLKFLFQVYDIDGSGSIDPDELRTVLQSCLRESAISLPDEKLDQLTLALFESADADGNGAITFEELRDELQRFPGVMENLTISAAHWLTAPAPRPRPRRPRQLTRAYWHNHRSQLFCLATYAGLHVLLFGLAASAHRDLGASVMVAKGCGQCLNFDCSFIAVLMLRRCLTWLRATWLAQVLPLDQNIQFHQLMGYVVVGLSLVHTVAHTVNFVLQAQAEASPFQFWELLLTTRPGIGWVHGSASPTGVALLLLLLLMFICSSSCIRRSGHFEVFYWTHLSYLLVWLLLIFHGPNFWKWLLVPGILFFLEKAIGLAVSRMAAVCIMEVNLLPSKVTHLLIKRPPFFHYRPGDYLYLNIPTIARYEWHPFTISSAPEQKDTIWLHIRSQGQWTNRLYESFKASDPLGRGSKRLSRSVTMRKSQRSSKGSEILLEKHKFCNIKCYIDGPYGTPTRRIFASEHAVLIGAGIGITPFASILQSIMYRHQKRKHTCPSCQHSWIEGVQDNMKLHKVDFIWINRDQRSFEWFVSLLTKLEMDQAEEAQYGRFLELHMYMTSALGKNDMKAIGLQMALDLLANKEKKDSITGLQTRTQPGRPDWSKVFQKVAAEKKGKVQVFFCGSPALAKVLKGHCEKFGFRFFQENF

NOX5 [2] = biological target: T1, NOX5; experiment: Amplex Red/HRP H2O2 detection in NOX5-expressing HEK293 cells; assay type: cell-based; conditions: PMA 0.1 μM and ionomycin 1 μM, read-out: IC50 NOX5 (HEK) AR
NOX2 [3] = biological target: T2, NOX2 (Homo sapiens, UniProt P04839); experiment: WST-1 O2•- detection in differentiated PLB-985 cells (NOX2)
T2 sequence (P04839 2-570 limits assumed): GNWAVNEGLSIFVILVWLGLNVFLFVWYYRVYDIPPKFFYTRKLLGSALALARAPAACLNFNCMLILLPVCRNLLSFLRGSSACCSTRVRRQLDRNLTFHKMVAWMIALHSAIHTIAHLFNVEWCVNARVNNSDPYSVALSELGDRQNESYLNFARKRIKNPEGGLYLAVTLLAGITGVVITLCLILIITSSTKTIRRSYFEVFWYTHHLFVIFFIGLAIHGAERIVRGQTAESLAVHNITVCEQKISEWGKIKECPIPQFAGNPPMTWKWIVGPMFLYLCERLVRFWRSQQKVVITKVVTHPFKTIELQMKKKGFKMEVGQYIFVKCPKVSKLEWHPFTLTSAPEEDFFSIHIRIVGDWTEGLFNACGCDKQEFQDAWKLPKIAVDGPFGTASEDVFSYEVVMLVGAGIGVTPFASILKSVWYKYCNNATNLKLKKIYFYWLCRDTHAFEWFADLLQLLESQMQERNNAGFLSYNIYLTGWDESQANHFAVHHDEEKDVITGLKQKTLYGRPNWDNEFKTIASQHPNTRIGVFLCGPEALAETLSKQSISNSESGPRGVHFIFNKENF
T2 sequence (P13498 1-195 partner): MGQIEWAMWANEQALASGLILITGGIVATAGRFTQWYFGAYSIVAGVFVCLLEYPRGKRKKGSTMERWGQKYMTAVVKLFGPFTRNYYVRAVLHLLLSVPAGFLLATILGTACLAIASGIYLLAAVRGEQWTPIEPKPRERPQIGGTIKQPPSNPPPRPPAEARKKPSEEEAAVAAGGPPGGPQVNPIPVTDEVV

in vitro = conditions: Chinese hamster
NOX2 [4] = biological target: T2, NOX2; experiment: Amplex Red/HRP H2O2 detection in differentiated PLB-985 cells (NOX2)
NOX5 [5] = biological target: T1, NOX5; experiment: NOX5 activity in purified membranes of HEK293 cells expressing NOX5 (WST-1, CBA); assay type: biochemical; conditions: for Inhibitory activity in NOX5 membrane assay: WST-1 / CBA, concentration not given
Experimental: PLB-985 (40 dishes 150 cm^2) were grown in suspension and differentiated by addition of 1.25% DMSO for 72 h. HEK293 cells expressing NOX5 (40 dishes 150 cm^2) were amplified until confluence and detached using trypsin-EDTA for 5 min followed by addition of 2 vol of pre-warmed complete growth media to inactivate trypsin. Collected cells were centrifuged at 4000 ×g for 10 min. Cells were washed with PBS and centrifuged at 1500 ×g for 10 min. The supernatant was discarded and the pellet was placed at −80 °C for at least 30 min. […] Samples were sonicated two times for 25 s (level 7, Branson Sonifier 250). Cell debris were removed by centrifugation at 800 ×g for 10 min at 4 °C. The supernatant was laid on a sucrose gradient consisting of a bottom layer of 1 mL 40% sucrose and an upper layer of 1 mL 17% sucrose. Ultracentrifugation was performed at 150,000 ×g in SW60 rotor for 30 min at 4 °C. Following separation, the upper cytosolic fraction was discarded and the cloudy membrane fraction was collected. Protein concentration was determined with Bradford reagent using BSA as a standard. Small aliquots were kept at −80 °C.
NOX2 containing membranes were used at 10 μg/mL of proteins in a reaction mixture containing 90 nM recombinant RacQ61L, 45 nM recombinant p67Np47 N chimeric protein (consisting of a fusion of the N-termini of human p67phox [residues 1–210] and p47phox [residues 1–286]), 90 μM SDS, 1 μM FAD-Na2 and 1 mM WST-1 or 800 μM CBA in PBS. The reaction mixture was dispensed in 96-well plates (transparent for WST-1 absorbance, black for CBA fluorescence) at 80 μL/well and the plate was incubated for 5 min at 37 °C. The reaction was initiated by addition of 20 μL/well NADPH at final concentration 100 μM. NOX5 containing membranes were used at 20 μg/mL of proteins in a reaction mixture containing 50 mM HEPES pH 7.4, 1 mM NTA, 1 mM EDTA, 1 mM BAPTA, 1 mM MgCl2, 5.5 μM phosphatidic acid, 1 μM FAD, 700 μM CaCl2 and 1 mM WST-1 or 800 μM CBA in Milli-Q H2O. The reaction mixture was dispensed in 96-well plates (transparent for absorbance, black for fluorescence) at 80 μL/well and 20 μL/well of NADPH at final concentration of 200 μM were added to initiate the reaction.
Reported NOX inhibitors were added in 96 well plates at a single concentration as indicated to which mix containing membrane fractions and all components of the NOX2 or NOX5 membrane assays were added except NADPH. After 2–3 min incubation, 200 μM NADPH was added to start the reaction.

IC50 (NOX5 [1]) [µM]	IC50 (NOX5 [2]) [µM]	IC50 (NOX2 [3]) [µM]	IC50 (NOX2 [4]) [µM]	SMILES	CC50 at 1 h (in vitro) [µM]	Inhibitory activity in NOX5 membrane assay (NOX5 [5])	CC50 at 1 h (in vitro; CHO cells) [µM]	Inhibition of NOX5-dependent signal in membranes (NOX5 [5]; compound 50 μM)	Inhibitory activity in NOX5 membrane assay (NOX5 [5]; listed as VAS280)
> 50	> 50	> 50	> 50	COc1cc(C(C)=O)ccc1O [Apocynin, apocynin]	> 50	–	–	–	–
–	–	–	–	c1ccc2c(c1)[I+]c1ccccc1-2 [DPI, diphenylene iodonium chloride]	> 50	potently inhibited	–	–	–
> 50	16.6	> 50	38.9	COc1cc(C(C)=O)cc(-c2cc(C(C)=O)cc(OC)c2O)c1O [Diapocynin, diapocynin]	–	–	> 50	–	–
> 50	8	> 50	12.2	Cc1c2c(=O)n(-c3ccccc3Cl)[nH]c2cc(=O)n1Cc1ccccn1 [GKT136901]	–	–	> 50	–	–
–	–	–	–	c1ccc(Cn2nnc3c(Sc4nc5ccccc5o4)ncnc32)cc1 [VAS2870, 3-benzyl-7-(2-benzoxazolyl)thio-1,2,3-triazolo[4,5-d]pyrimidine]	–	no inhibitory activity	–	–	some level of inhibition

SMILES	IC50 (NOX5 [1]) [µM]	IC50 (NOX5 [2]) [µM]	IC50 (NOX2 [3]) [µM]	IC50 (NOX2 [4]) [µM]	CC50 at 1 h (in vitro) [µM]	Inhibitory activity in NOX5 membrane assay (NOX5 [5])	CC50 at 1 h (in vitro; CHO cells) [µM]	Inhibition of NOX5-dependent signal in membranes (NOX5 [5]; compound 50 μM)	Inhibitory activity in NOX5 membrane assay (NOX5 [5]; listed as VAS280)
O=c1c2ccccc2[se]n1-c1ccccc1 [Ebselen, ebselen]	–	2.1	–	–	–	–	3.3	inhibited	–
